How the values were obtained:
[1] = system: OPM2; experiment: PBMC and MM cell treatment assay (single culture vs co-culture); format: cell-based; conditions: Homo sapiens, OPM-2, OPM2, read-out: Immune-mediated Cell Killing IC50
Protocol: PBMC and MM Cell Treatment Assay Procedure. Ninety-six-well dishes were pre-coated with anti-CD3 antibody (OKT3, 3 μg/mL) and incubated at 4° C. overnight before the start of the experiment. Frozen PBMC donor cells were thawed at 37° C. for 2 minutes in RPMI medium with 10% FBS and cell counts and viability were measured on the Vi-CELL analyzer. Peripheral blood mononuclear cells were washed and diluted to 1×10^6 cells/mL and dispensed into the compound-treated plates in a total volume of 200 μL. Cells were incubated with compounds for 2 h before being transferred onto anti-CD3-coated plates and incubated for an additional 72 h. At the same time, MM cell lines (NCI-H929, H929-1051, OPM2, OPM2-P10) were diluted to a final concentration of 0.1×10^6 cells/mL and labeled with CellTrace CFSE according to manufacturer's instructions. Multiple myeloma cell lines were then dispensed into compound-treated plates at a total volume of 200 μL and incubated for 72 h. After 72 h, the PBMCs and MM cells were counted and transferred into a U-bottom 96-well plate at a final T:E ratio of 1:5. After 24 h coculture, specific target cell lysis by PBMC cells was measured using Annexin V-AF647 and 7-AAD according to manufacturer's instructions and samples were run on the Attune NxT Cytometer.
Because preincubation of immune cells with Compound 2 enhanced the targeting and lysing of MM cells, the effect of preincubation of MM cells with Compound 2 on their susceptibility to immune-mediated killing was also explored (FIG. 16A, FIG. 16B, FIG. 16C, and FIG. 16D, Table 12). Four MM cell lines and anti-CD3 antibody-activated PBMCs were separately preincubated with Compound 2, lenalidomide, or pomalidomide for 72 h. When anti-CD3 antibody-activated PBMCs and MM lines were both pretreated with Compound 2, lenalidomide, or pomalidomide, followed by co-culture, the effects on the PBMC-induced MM cell lysis were enhanced both in the potency and magnitude of the killing response. […] For the pomalidomide-resistant OPM2-P10 cell line, Compound 2 treatment of the MM cells enhanced the immune-mediated killing by ˜3000-fold (Table 12).

[2] = system: DF15; experiment: Flow cytometry proliferation/apoptosis assay (120 h); format: cell-based, human; conditions: for IC50: Homo sapiens, read-out: Antiproliferative Activity (Flow Cytometry) IC50; for induced apoptosis AUC (area under the dose response curve): scale 0-10000
Protocol: (§1) Methods. […] Twenty MM cell lines (Table 7 and 8) (including the plasma cell leukemia (PCL) cell lines L363, JJN-3, ARH-77, and SKMM-2) were treated in duplicate with escalating concentrations of Compound 2 or pomalidomide, ranging from 0.015 to 100 nM. Using 5 mM stocks, compounds were pre-spotted into the appropriate wells of 96-well plates using a Hewlett-Packard D300 Digital Dispenser. Cells were added to 96-well plates using a Multidrop Combi Reagent Dispenser. After 5 days of treatment, flow cytometric analysis was used to determine the number of cells that were alive, dead, or apoptotic. After 5 days of treatment, cells were incubated with annexin V to stain exposed phosphatidylserine, an apoptotic cell-surface marker, and the vital dye 7-AAD, which is excluded from cells with intact cell membranes, and analyzed by flow cytometry (Attune®, Thermo Fisher). Analysis was then performed to determine the number of live cells (annexin V and 7-AAD double negative staining cells) and the percentage of apoptotic cells (annexin V positive cells) for each condition, relative to the DMSO control treated, was calculated. All described values were normalized to DMSO-only treated cells. All proliferation and apoptosis induction curves were processed and graphed as percent of control using XLFit (IDBS, Alameda, CA) and GraphPad Prism 7.03 (GraphPad Software, La Jolla, CA). The live cell count for every concentration was normalized to the DMSO control (considered as 100%) in Microsoft Excel to generate the proliferation curves. […] Similarly, for apoptosis analysis, the percentage of drug-induced apoptosis was calculated for all doses by combining both “early” (annexin V positive and 7-AAD negative) and “late” apoptosis (annexin V and 7-AAD positive) values and subtracting background values (cell treated with vehicle control DMSO). The AUC values for apoptosis curves were calculated by performing area under curve analysis on GraphPad Prism 7.03. The area under the dose-response curve (AUC) was calculated since it integrates potency and efficacy of the drugs to represent apoptosis into a single parameter. The IC50 values for Compound 2 and pomalidomide in the flow cytometry assays are presented Table 9.
(§2) The apoptosis induction effect of Compound 2 was assessed using flow cytometry after 120 h of treatment and compared with pomalidomide treatment. […] Each data point represents 2 independent experiments with at least two samples in each experiment. (Table 10).

[3] = system: MM1-S; experiment: as above; format: cell-based, human; conditions: for IC50: Homo sapiens, MM1-S, read-out: Antiproliferative Activity (Flow Cytometry) IC50; for induced apoptosis AUC (area under the dose response curve): MM1.S, 10000 = complete induction at all doses, 0 = none
Protocol: as §1, §2

[4] = system: KMS-12-PE; experiment: as above; format: cell-based, human; conditions: for IC50: Homo sapiens, read-out: Antiproliferative Activity (Flow Cytometry) IC50; for induced apoptosis AUC (area under the dose response curve): scale 0-10000
Protocol: as §1, §2

[5] = system: OPM2; experiment: as above; format: cell-based, human; conditions: for IC50: Homo sapiens, OPM-2, read-out: Antiproliferative Activity (Flow Cytometry) IC50; for induced apoptosis AUC (area under the dose response curve): scale 0-10000
Protocol: as §1, §2

[6] = system: ANBL-6; experiment: as above; format: cell-based, human; conditions: for IC50: Homo sapiens, read-out: Antiproliferative Activity (Flow Cytometry) IC50; for induced apoptosis AUC (area under the dose response curve): scale 0-10000
Protocol: as §1, §2

[7] = system: LP-1; experiment: as above; format: cell-based, human; conditions: for IC50: Homo sapiens, read-out: Antiproliferative Activity (Flow Cytometry) IC50; for induced apoptosis AUC (area under the dose response curve): scale 0-10000
Protocol: as §1, §2

[8] = system: NCI-H929; experiment: as above; format: cell-based, human; conditions: for IC50: Homo sapiens, read-out: Antiproliferative Activity (Flow Cytometry) IC50; for induced apoptosis AUC (area under the dose response curve): scale 0-10000
Protocol: as §1, §2

SMILES | IC50 ([1]; Co-culture with PBMCs) | IC50 ([1]; Single culture) | IC50 [2] | induced apoptosis AUC (area under the dose response curve) [2] | IC50 [3] | induced apoptosis AUC (area under the dose response curve) [3] | IC50 [4] | induced apoptosis AUC (area under the dose response curve) [4] | IC50 [5] | induced apoptosis AUC (area under the dose response curve) [5] | IC50 [6] | induced apoptosis AUC (area under the dose response curve) [6] | IC50 [7] | induced apoptosis AUC (area under the dose response curve) [7] | IC50 [8] | induced apoptosis AUC (area under the dose response curve) [8]
N#Cc1ccc(N2CCN(Cc3ccc(COc4cccc5c4CN([C@H]4CCC(=O)NC4=O)C5=O)cc3)CC2)c(F)c1 [Compound 2, (S)-4-(4-(4-(((2-(2,6-dioxopiperidin-3-yl)-1-oxoisoindolin-4-yl)oxy)methyl)benzyl)piperazin-1-yl)-3-fluorobenzonitrile] | 0.0936 nM | 0.3 nM | 0.05 nM | 6002 | 0.04 nM | 5701 | 0.09 nM | 2017 | 0.05 nM | 5620 | 0.06 nM | 4751 | 0.14 nM | 630.7 | 0.05 nM | 6089
Nc1cccc2c1C(=O)N(C1CCC(=O)NC1=O)C2=O (centres unmarked) [Pomalidomide, pomalidomide] | 168 nM | 627 nM | 41 nM | 3707 | 33.7 nM | 3525 | 83.8 nM | 1069 | 69.7 nM | 3298 | 60.6 nM | 2580 | 176 nM | 174 | 63.1 nM | 2115

From patent US12029738B2, “Antiproliferative compounds and methods of use thereof” (Celgene Corporation, priority 2017, dated 2024)
